Test results: ChEMBL document CHEMBL1221225, “A small molecule that directs differentiation of human ESCs into the pancreatic lineage” (Nat Chem Biol, 2009)
Active and inactive are the calls of the source. The rule behind the calls is not given here.

Experiments:
AV3 [1] = test: Induction of mouse AV3 cell differentiation into pancreatic lineage assessed as increase in cdcp1 mRNA expression at 300 nM after 6 days by RT-PCR analysis pretreated with 1000 ng/ml recombinant mouse Nodal for 5 days; type: functional, cell-based
[2] = Induction of insulin production in differentiated human HUES8 cells at 300 nM after 4 days by immunocytochemistry (reference value: 0.2+/-0.1%); type: functional
[3] = Induction of human HUES8 differentiation into pancreatic lineage assessed as increase in amylase/CPA double-positive exocrine cells at 300 nM after 4 days by RT-PCR (reference value: 1.6+/-0.2%); type: functional
[4] = Inhibition of PKC signaling in human HUES8 cells assessed as decrease in Pdx1-expressing cells at 1 uM after 4 days cells pregrown in medium with Wnt3a, activin A, FGF10, KAAD-cyclopamine and retinoic acid in presence of 10 uM Go 6983 by immunocytochemistry (reference value: 26.9+/-2.8%); type: cell-based
Liver [5] = test: Induction of Albumin expression in CD1 nude mouse liver at 300 nM after 4 days by fluorescent confocal microscopy; type: functional, tissue-based
Heart = test: Induction of Troponin T expression in CD1 nude mouse heart at 300 nM after 4 days by fluorescent confocal microscopy; type: functional, tissue-based
[6] = Induction of human HUES8 cell differentiation into pancreatic progenitor cell assessed as PTF1A expression in cells pregrown in medium containing Wnt, activin, FGF10, KAAD-cyclopamine and retinoic acid at 300 nM after 4 days by immunocytochemistry relative to control; type: functional
[7] = Induction of human HUES8 differentiation into pancreatic lineage assessed as increase in DBA-positive exocrine cells at 300 nM after 4 days by RT-PCR (Rvb (DMSO) = 0%); type: functional
Intestine = test: Induction of CES2 expression in CD1 nude mouse intestine at 300 nM after 4 days by fluorescent confocal microscopy; type: functional, tissue-based
[8] = Induction of human GTE cells differentiation into pancreatic lineage assessed as increase in Pdx1-expressing cells at 300 nM after 4 days by immunocytochemistry pregrown in medium with FGF10 and KAAD-cyclopamine (Rvb (DMSO) = 2.8+/-0.6%); type: functional
HUES8 [9] = test: Induction of human HUES8 cell differentiation into pancreatic progenitor cell assessed as increase in Pdx1 mRNA expression at 300 nM after 4 days by RT-PCR analysis cells pregrown in medium containing Wnt, activin, FGF10, KAAD-cyclopamine and retinoic acid; type: functional, cell-based
[10] = Induction of human HUES8 differentiation into pancreatic lineage assessed as increase in DBA-positive exocrine cells at 300 nM after 4 days by RT-PCR (reference value: 0.8+/-0.2%); type: functional
HUES8 [11] = test: Induction of human HUES8 cell differentiation into pancreatic progenitor cell assessed as increase in PTF1A mRNA expression at 300 nM after 4 days by RT-PCR analysis cells pregrown in medium containing Wnt, activin, FGF10, KAAD-cyclopamine and retinoic acid; type: functional, cell-based
Lung = test: Induction of SOX2 expression in CD1 nude mouse lung at 300 nM after 4 days by fluorescent confocal microscopy; type: functional, tissue-based
[12] = Induction of human HUES8 differentiation into pancreatic lineage assessed as increase in amylase/CPA double-positive exocrine cells at 300 nM after 4 days by RT-PCR (Rvb (DMSO) = 0.2+/-0.1%); type: functional
Homo sapiens [13] = organism: Homo sapiens; test: Effect on human HUES8 differentiation into neuronal lineage assessed as c-peptide/GFAP double positive cells at 300 nM after 4 days by immunocytochemistry; type: functional
AV3 [14] = test: Induction of mouse AV3 cell differentiation into pancreatic lineage assessed as increase in ptf1a mRNA expression at 300 nM after 6 days by RT-PCR analysis pretreated with 1000 ng/ml recombinant mouse Nodal for 5 days; type: functional, cell-based
AV3 [15] = test: Induction of mouse AV3 cell differentiation into pancreatic lineage assessed as increase in Hnf6 mRNA expression at 300 nM after 6 days by RT-PCR analysis pretreated with 1000 ng/ml recombinant mouse Nodal for 5 days; type: functional, cell-based
[16] = Inhibition of PKC signaling in human HUES8 cells assessed as decrease in Pdx1-expressing cells at 1 uM after 4 days cells pregrown in medium with Wnt3a, activin A, FGF10, KAAD-cyclopamine and retinoic acid in presence of 1 uM BISI by immunocytochemistry (reference value: 26.9+/-2.8%); type: cell-based
[17] = Induction of human HUES8 cell differentiation into pancreatic progenitor cell assessed as FOXA2 expression in cells pregrown in medium containing Wnt, activin, FGF10, KAAD-cyclopamine and retinoic acid at 300 nM after 4 days by immunocytochemistry relative to control; type: functional
HUES8 [18] = test: Induction of human HUES8 cell differentiation into pancreatic progenitor cell assessed as increase in NGN3 mRNA expression at 300 nM after 4 days by RT-PCR analysis cells pregrown in medium containing Wnt, activin, FGF10, KAAD-cyclopamine and retinoic acid; type: functional, cell-based
Mus musculus [19] = organism: Mus musculus; test: Induction of SOX7 expression in CD1 nude mouse extra-embryonic endoderm at 300 nM after 4 days by fluorescent confocal microscopy; type: functional, tissue-based
Mus musculus [20] = organism: Mus musculus; test: Induction of SOX1 expression in CD1 nude mouse ectoderm at 300 nM after 4 days by fluorescent confocal microscopy; type: functional, tissue-based
[21] = Cytotoxicity against human HUES9 cells at 300 nM; type: cell-based; conditions: hues9, 0.3 µM
[22] = Induction of human HUES8 cell differentiation into pancreatic progenitor cell assessed as HNF6 expression in cells pregrown in medium containing Wnt, activin, FGF10, KAAD-cyclopamine and retinoic acid at 300 nM after 4 days by immunocytochemistry relative to control; type: functional
[23] = Induction of human HUES8 cell differentiation into pancreatic progenitor cell assessed as NKX6.1 expression in cells pregrown in medium containing Wnt, activin, FGF10, KAAD-cyclopamine and retinoic acid at 300 nM after 4 days by immunocytochemistry relative to control; type: functional
HUES8 [24] = test: Induction of human HUES8 cell differentiation into endocrine progenitor cell assessed as increase in NKX2.2 mRNA expression at 300 nM after 4 days by RT-PCR analysis cells pregrown in medium containing Wnt, activin, FGF10, KAAD-cyclopamine and retinoic acid; type: functional, cell-based
Homo sapiens [25] = organism: Homo sapiens; test: Induction of human HUES8 differentiation into definitive endoderm assessed as expression of SOX17 at 300 nM after 3 days by immunocytochemistry; type: functional
HUES2 = test: Induction of human HUES2 cell differentiation into pancreatic progenitor cells assessed as increase in Pdx1-expression in cells pregrown with medium containing Wnt, activin, FGF10, KAAD-cyclopamine and retinoic acid at 300 nM after 4 days by Opera high content screening system relative to control; type: functional, cell-based
Homo sapiens [26] = organism: Homo sapiens; test: Induction of Pdx1 expression in human HUES8 insulin-producing cells at 300 nM after 4 days by immunocytochemistry relative to control; type: functional
Homo sapiens [27] = organism: Homo sapiens; test: Effect on human HUES8 differentiation into neuronal lineage assessed as c-peptide/betaIIItubulin double positive cells at 300 nM after 4 days by immunocytochemistry; type: functional, cell-based
Liver [28] = test: Induction of AFP expression in CD1 nude mouse liver at 300 nM after 4 days by fluorescent confocal microscopy; type: functional, tissue-based

In the case of `CC(C)[C@H]1C(=O)N[C@H](CO)Cc2c[nH]c3cccc(c23)N1C` [INDOLACTUM], the Activity (AV3 [1]) is reported as “Active”, the Activity [2] is reported as 0.5% and the Activity [3] is reported as 22.7%. The inhibition [4] was 0.8%, the Activity (Liver [5]) was “inactive” and the Activity (Heart) was “inactive”. The Activity [6] was 90.1%, the Activity [7] was 3.6% and the Activity (Intestine) was “inactive”. The Activity [8] was 21.5%, the Activity (HUES8 [9]) was “Active” and the Activity [10] was 3.6%. For the same compound, the Activity (HUES8 [11]) was “Active”, the Activity (Lung) was “inactive” and the Activity [12] was 22.7%. For the same compound, the Activity (Homo sapiens [13]) was “inactive”, the Activity (AV3 [14]) was “Active” and the Activity (AV3 [15]) was “Active”. The inhibition [16] was 0.6%, the Activity [17] was 99.5% and the Activity (HUES8 [18]) was “Active”. The Activity (Mus musculus [19]) was “inactive”, the Activity (Mus musculus [20]) was “inactive” and the Activity [21] was “Non-toxic”. The Activity [22] was 91.3%, the Activity [23] was 83.5% and the Activity (HUES8 [24]) was “Active”. The Activity (Homo sapiens [25]) was “inactive”, the Activity (HUES2) was “Active” and the Activity (Homo sapiens [26]) was “Active”. The Activity (Homo sapiens [27]) was “inactive” and the Activity (Liver [28]) was “inactive”.
